Measured values as given in ChEMBL document CHEMBL1201862, “PubChem BioAssay data set” (2004).
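Cultured in 96-well plates, cells were exposed to test compound for 48 hours across five concentrations. Abbreviation: GI50, concentration required for 50% inhibition of growth.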 Calls of active or inactive are those of the source. Rule as the data show it: active = GI50 up to about 1.1 µM and inactive = higher.

Legend:
Assay in all cases: DTP human tumour cell line panel, 48 h
[1] = tested on: CAKI-1
[2] = tested on: COLO 205
[3] = tested on: EKVX
[4] = tested on: HCT-15
[5] = tested on: Hs-578T
[6] = tested on: LOX IMVI
[7] = tested on: M14
[8] = tested on: MCF7
[9] = tested on: Malme-3M
[10] = tested on: NCI-H226
[11] = tested on: NCI/ADR-RES
[12] = tested on: OVCAR-8
[13] = tested on: SK-OV-3
[14] = tested on: SN12C
[15] = tested on: SNB-75
[16] = tested on: T47D
[17] = tested on: TK-10
[18] = tested on: UACC-257
[19] = tested on: UO-31
[20] = tested on: U-251

SMILES | GI50 [1] | GI50 [2] | GI50 [3] | GI50 [4] | GI50 [5] | GI50 [6] | GI50 [7] | GI50 [8] | GI50 [9] | GI50 [10] | GI50 [11] | GI50 [12] | GI50 [13] | GI50 [14] | GI50 [15] | GI50 [16] | GI50 [17] | GI50 [18] | GI50 [19] | GI50 [20]
CCN1C(=O)C(=C/C=C/C=C2/N(C)c3ccccc3C2(C)C)C(=O)N(CC)C1=S | > 100 µM (inactive) | > 100 µM (inactive) | > 100 µM (inactive) | > 100 µM | > 100 µM (inactive) | 21.5 µM (inactive) | > 100 µM (inactive) | > 100 µM (inactive) | > 100 µM (inactive) | > 100 µM (inactive) | > 100 µM (inactive) | > 100 µM (inactive) | 36.3 µM (inactive) | > 100 µM (inactive) | > 100 µM (inactive) | 82.4 µM (inactive) | > 100 µM (inactive) | 56.1 µM (inactive) | > 100 µM (inactive) | –
CCOC(=O)c1ccc(/N=c2\oc3ccc(OC)cc3cc2-c2nc3ccccc3[nH]2)cc1 | > 100 µM (inactive) | 73.5 µM (inactive) | > 100 µM (inactive) | > 100 µM | 79.8 µM (inactive) | > 100 µM (inactive) | 65.3 µM (inactive) | 36.5 µM (inactive) | > 100 µM (inactive) | 0.516 µM (active) | > 100 µM (inactive) | 4.21 µM (inactive) | 73.8 µM (inactive) | > 100 µM (inactive) | 14.1 µM (inactive) | > 100 µM (inactive) | > 100 µM (inactive) | > 100 µM (inactive) | > 100 µM (inactive) | 31.4 µM (inactive)
CCCn1c(=O)c2nn3c(=O)n(CCC)c(=O)c3nn2c1=O | > 100 µM (inactive) | > 100 µM (inactive) | > 100 µM (inactive) | > 100 µM | > 100 µM (inactive) | > 100 µM (inactive) | > 100 µM (inactive) | > 100 µM (inactive) | > 100 µM (inactive) | > 100 µM (inactive) | > 100 µM (inactive) | > 100 µM (inactive) | > 100 µM (inactive) | > 100 µM (inactive) | > 100 µM (inactive) | > 100 µM (inactive) | > 100 µM (inactive) | > 100 µM (inactive) | > 100 µM (inactive) | > 100 µM (inactive)
COc1c(OC)c(OC)c2c(=O)cc(-c3ccc(OC(C)C)cc3)oc2c1OC | 20.5 µM (inactive) | 21.4 µM (inactive) | 26.4 µM (inactive) | 19.4 µM | 23.1 µM (inactive) | 27.5 µM (inactive) | 19.1 µM (inactive) | 18.3 µM (inactive) | 29.4 µM (inactive) | 15.1 µM (inactive) | 17.5 µM (inactive) | 14.7 µM (inactive) | > 35.7 µM (inactive) | > 38.9 µM (inactive) | > 35.2 µM (inactive) | 7.03 µM (inactive) | > 38.6 µM (inactive) | 25.6 µM (inactive) | 18.2 µM (inactive) | > 37.2 µM (inactive)
CC1=C(/C=C/Cl)CC(Cl)C(C)(Cl)C1 (stereo unspecified) | > 100 µM (inactive) | > 100 µM (inactive) | > 100 µM (inactive) | > 100 µM | > 100 µM (inactive) | > 100 µM (inactive) | > 100 µM (inactive) | 40 µM (inactive) | > 100 µM (inactive) | > 100 µM (inactive) | > 100 µM (inactive) | > 100 µM (inactive) | > 100 µM (inactive) | > 100 µM (inactive) | > 100 µM (inactive) | > 100 µM (inactive) | > 100 µM (inactive) | > 100 µM (inactive) | > 100 µM (inactive) | > 100 µM (inactive)
O=C(c1cc2c(c3ccccc13)NC1(CCCCC1)N=C2C(F)(F)F)C(F)(F)F | 3.35 µM (inactive) | 5.57 µM (inactive) | 4.82 µM (inactive) | 5.07 µM | 6.32 µM (inactive) | 3.33 µM (inactive) | 6.17 µM (inactive) | 3.63 µM (inactive) | 5.27 µM (inactive) | 4.41 µM (inactive) | 4.53 µM (inactive) | 4.23 µM (inactive) | 5.61 µM (inactive) | 3.66 µM (inactive) | 4.7 µM (inactive) | 2.93 µM (inactive) | 4.01 µM (inactive) | 3.17 µM (inactive) | 3.62 µM (inactive) | 3.78 µM (inactive)
O=C(O)CN1CCN2CCCCCCCCN(CC1)CCN(CC(=O)O)CC2 | > 100 µM (inactive) | > 100 µM (inactive) | > 100 µM (inactive) | > 100 µM | > 100 µM (inactive) | > 100 µM (inactive) | > 100 µM (inactive) | > 100 µM (inactive) | > 100 µM (inactive) | > 100 µM (inactive) | > 100 µM (inactive) | > 100 µM (inactive) | > 100 µM (inactive) | > 100 µM (inactive) | 21.9 µM (inactive) | > 100 µM (inactive) | > 100 µM (inactive) | > 100 µM (inactive) | > 100 µM (inactive) | > 100 µM (inactive)
CCOP(=O)(O)C(Nc1ccc(/N=N/c2ccccc2)cc1)c1cccc(C(Nc2ccc(/N=N/c3ccccc3)cc2)P(=O)(O)OCC)c1 (stereo unspecified) | 66.1 µM (inactive) | 21.6 µM (inactive) | 57.4 µM (inactive) | 24.8 µM | 38.7 µM (inactive) | 19.9 µM (inactive) | 40.6 µM (inactive) | 35.2 µM (inactive) | > 100 µM (inactive) | > 100 µM (inactive) | 76.9 µM (inactive) | 55 µM (inactive) | 81.3 µM (inactive) | 52 µM (inactive) | 44.4 µM (inactive) | 18.4 µM (inactive) | > 100 µM (inactive) | 57 µM (inactive) | 30 µM (inactive) | 31.2 µM (inactive)
Clc1cc(OCc2nn3c(Cc4ccccc4)nnc3s2)ccc1OCc1nn2c(Cc3ccccc3)nnc2s1 | 21.1 µM (inactive) | > 100 µM (inactive) | 17.1 µM (inactive) | 47.8 µM | 48.9 µM (inactive) | 93.8 µM (inactive) | 87.7 µM (inactive) | 50.4 µM (inactive) | 37.5 µM (inactive) | 54.6 µM (inactive) | 59.3 µM (inactive) | 20.7 µM (inactive) | 26.7 µM (inactive) | 45.3 µM (inactive) | 15.6 µM (inactive) | 20.9 µM (inactive) | 29.4 µM (inactive) | > 100 µM (inactive) | 39.4 µM (inactive) | 21.6 µM (inactive)
O=C1C=CC(=O)N1c1ccc2c(c1)Cc1cc(NC(=O)C(F)(F)F)ccc1-2 | 16 µM (inactive) | 13.1 µM (inactive) | 14.9 µM (inactive) | 10.6 µM | 21.1 µM (inactive) | 18 µM (inactive) | 20.9 µM (inactive) | 15.1 µM (inactive) | 19.8 µM (inactive) | 4.84 µM (inactive) | 27.7 µM (inactive) | 17.7 µM (inactive) | > 100 µM (inactive) | 17.1 µM (inactive) | 16.1 µM (inactive) | 17.9 µM (inactive) | 3 µM (inactive) | 18 µM (inactive) | 13.6 µM (inactive) | 18.2 µM (inactive)
C/C(=N\c1c2ccccc2nc2ccccc12)N(C)C | 24.3 µM (inactive) | 12.6 µM (inactive) | 32.7 µM (inactive) | 28.6 µM | 22 µM (inactive) | 11.6 µM (inactive) | 11.5 µM (inactive) | 25.8 µM (inactive) | 32.9 µM (inactive) | 11.9 µM (inactive) | 16.3 µM (inactive) | 13.3 µM (inactive) | 22.8 µM (inactive) | – | 24.1 µM (inactive) | 20.5 µM (inactive) | 21.9 µM (inactive) | 16.9 µM (inactive) | 9.64 µM (inactive) | 23 µM (inactive)
N#Cc1cc(-c2nc3ccc(F)cc3s2)ccc1N | > 100 µM (inactive) | 28.9 µM (inactive) | 31.8 µM (inactive) | 87.7 µM | > 100 µM (inactive) | 74.8 µM (inactive) | > 100 µM (inactive) | 18 µM (inactive) | 35.3 µM (inactive) | > 100 µM (inactive) | > 100 µM (inactive) | > 100 µM (inactive) | 21.8 µM (inactive) | > 100 µM (inactive) | 14.7 µM (inactive) | > 100 µM (inactive) | > 100 µM (inactive) | > 100 µM (inactive) | > 100 µM (inactive) | 63 µM (inactive)
CN(/N=C/c1ccccn1)C1=NCCCN1 | > 100 µM (inactive) | > 100 µM (inactive) | > 100 µM (inactive) | > 100 µM | > 100 µM (inactive) | > 100 µM (inactive) | > 100 µM (inactive) | > 100 µM (inactive) | > 100 µM (inactive) | > 100 µM (inactive) | > 100 µM (inactive) | > 100 µM (inactive) | > 100 µM (inactive) | – | > 100 µM (inactive) | > 100 µM (inactive) | > 100 µM (inactive) | > 100 µM (inactive) | > 100 µM (inactive) | > 100 µM (inactive)
COc1cc(C2c3cc4c(cc3OC(N3CCOCC3)C2C)OCO4)cc(OC)c1OC (stereo unspecified) | 0.522 µM (active) | – | 15.8 µM (inactive) | 0.418 µM | 0.226 µM (active) | 1.57 µM (inactive) | 0.708 µM (active) | 0.51 µM (active) | 3.79 µM (inactive) | 2.6 µM (inactive) | 0.335 µM (active) | 1.62 µM (inactive) | 3.27 µM (inactive) | 4.18 µM (inactive) | 5.19 µM (inactive) | 0.323 µM (active) | 4.42 µM (inactive) | 0.748 µM (active) | 1.86 µM (inactive) | 0.893 µM (active)
